In US20220098320A1, “SENOLYTIC CAR-T CELLS TARGETING UPAR, A CELL SURFACE AND SECRETED […]” (MEMORIAL SLOAN KETTERING CANCER CENTER, priority 2019, published 2022):

Assays:
[1] = tested on: suPAR; assay: CCl4-induced liver fibrosis: plasma suPAR; type: in vivo; settings: CCl4-treated mice vs untreated controls; FIGS. 5B and 16D
Method: In vivo induction of liver fibrosis. C57BL/6J mice were treated twice a week with 12 consecutive intraperitoneal (i.p.) injections of 1 ml/kg carbon tetrachloride (CCl4) to induce liver fibrosis. For murine CAR T cell studies, cyclophosphamide (200 mg/kg) was administered 24 hours before T cell injection. Mice received 3×10^6 CAR^+ T cells or untransduced T cells and CCl4 was continuously administered at the same dose and interval after T cell injection until day 20 post CAR injection. Animals were sacrificed 48-72 h after the last CCl4 injection. NSG mice were treated twice a week with 8 consecutive i.p. injections of 1 ml/kg CCl4 to induce liver fibrosis. For human CAR T cell studies, mice received 0.5×10^6 CAR T cells or untransduced T cells and CCl4 was continued once a week after CAR T injection until day 10 post CAR administration, when animals were sacrificed 48-72 h after the last CCl4 injection. Venous blood was collected by facial vein puncture.
(§1) Detection of suPAR levels. suPAR levels from cell culture supernatant of murine plasma were evaluated by enzyme-linked immunosorbent assay (ELISA) according to the manufacturer's protocol (R&D systems, DY531 (mouse) or DY807 (human)).

[2] = tested on: suPAR; assay: doxorubicin-induced senescence in vivo: plasma suPAR by ELISA; set-up: species or system C57BL/6J mice; settings: doxorubicin i.p. day 0 and day 10; blood at days 10 and 20; FIG. 7D
Method: In vivo induction of doxorubicin-Induced senescence. […] Venous blood was collected by facial vein puncture at days 10 and 20 after initial doxorubicin administration. Detection of suPAR levels. suPAR levels from cell culture supernatant of murine plasma were evaluated by enzyme-linked immunosorbent assay (ELISA) according to the manufacturer's protocol (R&D systems, DY531 (mouse) or DY807 (human)).

[3] = tested on: suPAR; assay: bleomycin-induced lung fibrosis: plasma suPAR; type: in vivo, NSG mice; settings: intratracheal bleomycin; FIGS. 9C-9E
Method: as §1

In the case of `ClC(Cl)(Cl)Cl` [CCl4, carbon tetrachloride], the “plasma suPAR levels” value [1] was “elevation of plasma suPAR levels relative to untreated controls”.

In the case of `COc1cccc2c1C(=O)c1c(O)c3c(c(O)c1C2=O)C[C@@](O)(C(=O)CO)C[C@@H]3O[C@H]1C[C@H](N)[C@H](O)[C@H](C)O1` [doxorubicin], the “plasma levels of suPAR” value [2] was “time-dependent and dose-dependent correlation with the plasma levels of suPAR”.

bleomycin was tested, and the “plasma levels of suPAR” value [3] was “Higher levels of suPAR”.
